Measurements taken from EP2853532B1, “1,2,4-oxadiazole derivatives as allosteric modulators of metabotropic glutamate receptors belonging to group III” (Instytut Farmakologii Polskiej Akademii Nauk, priority 2013, dated 2015).

Legend:
[1] = target: mGluR1 (Homo sapiens, UniProt Q13255); details: cited from earlier work
[2] = target: mGluR8 (Homo sapiens, UniProt O00222); details: cited from earlier work
[3] = target: T1, recombinant human mGlu4a receptor (Homo sapiens, UniProt Q14833); assay: mGluR4 assay on T-Rex-293 cell line; cyclic AMP level by HTRF in the presence of forskolin and glutamate; assay type: cell-based; details: for Emax: T-REx-293, percent of mGluR4 activity with tested compound and glutamate at maximally activating concentration (100%), mean of at least three independent experiments, read-out: % Glu Max; for EC50: EC50 for potentiation of glutamate response, forskolin 10 uM, mean of at least three independent experiments in duplicates
T1 construct: expressed in transfected cells
T1 sequence (Q14833 33-912): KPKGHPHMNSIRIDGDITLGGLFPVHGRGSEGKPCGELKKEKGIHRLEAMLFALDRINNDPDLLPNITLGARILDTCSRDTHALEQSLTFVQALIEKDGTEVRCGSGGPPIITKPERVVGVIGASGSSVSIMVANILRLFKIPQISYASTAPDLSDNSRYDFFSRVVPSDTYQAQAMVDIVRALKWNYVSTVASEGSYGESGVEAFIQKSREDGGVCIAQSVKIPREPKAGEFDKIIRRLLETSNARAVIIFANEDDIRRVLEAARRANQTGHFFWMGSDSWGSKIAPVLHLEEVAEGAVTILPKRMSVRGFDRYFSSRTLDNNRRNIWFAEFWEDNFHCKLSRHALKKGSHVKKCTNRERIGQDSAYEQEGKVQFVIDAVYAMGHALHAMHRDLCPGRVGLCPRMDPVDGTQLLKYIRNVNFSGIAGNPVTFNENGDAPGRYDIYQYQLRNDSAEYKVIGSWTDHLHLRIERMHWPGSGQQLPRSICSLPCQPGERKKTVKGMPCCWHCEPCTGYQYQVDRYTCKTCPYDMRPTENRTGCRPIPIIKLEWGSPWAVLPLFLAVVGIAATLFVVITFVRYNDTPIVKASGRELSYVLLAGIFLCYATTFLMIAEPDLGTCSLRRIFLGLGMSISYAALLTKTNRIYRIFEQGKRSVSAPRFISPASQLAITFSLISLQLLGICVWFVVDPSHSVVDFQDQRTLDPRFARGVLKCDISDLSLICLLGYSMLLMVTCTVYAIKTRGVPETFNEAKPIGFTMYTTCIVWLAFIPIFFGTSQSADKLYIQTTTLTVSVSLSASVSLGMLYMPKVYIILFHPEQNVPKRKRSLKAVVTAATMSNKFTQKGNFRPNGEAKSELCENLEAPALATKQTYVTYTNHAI
From the text: mGluR4 assay on T-Rex™-293 Cell line - expressing recombinant human mGlu4 receptor.
The compounds of the present invention are positive allosteric modulator of III group of metabotropic glutamate receptors, subtype 4. Their activity was examined on recombinant human mGlu4a receptor by detecting level of cyclic AMP in the presence of forskolin, adenylyl cyclase activator. The positive allosteric modulators provided in the present invention are expected to increase the functional activity and/or maximal efficacy of glutamate or other orthosteric agonists at mGluR4 receptor.
Plazmid construct. The cDNA fragment encoding human metabotropic receptor 4, variant 1 (accession number: NM_000841, NCBI Nucleotide Database) was cloned into the BamHI/NotI sites of pcDNA5/FRT/TO vector, under the control of a tetracycline regulated promoter (Invitrogen, Poland).
Cell culture and transfection. HEK293 cell line containing an inducible expression system (Flp-In T-Rex 293 cell line, Invitrogen, Poland) was maintained in Dulbecco's modified Eagle's medium supplemented with 10% fetal bovine serum, 2mM L-Glutamine (supplemented DMEM, LONZA, Poland), blastycidin and zeocin. T-Rex 293 cells were transfected with mixture of pTet-hmGluR4 and pOG44 (Invitrogen, Poland) plazmids and GeneJuice transfection reagent (Merck Millipore, Poland) according to the manufacturer's instructions. Cells were grown in supplemented DMEM with hygromycin B (75µg/ml) allowed selection of cells with stably integrated one copy of pTet-hmGluR4 plazmid. Expression of mGluR4 is induced by Tetracycline treatment.
Cell preparation before assay. Stable transfected cells were grown to 60% confluency with supplemented DMEM. Two days before experiment mGluR4 expression was induced by adding tetracycline in concentration 0,75µg/ml. 40h before experiment cells were incubated in a L-Glutamine free medium.
Cyclic AMP measurement. cAMP was measured quantitatively by cAMP dynamic 2 (Cisbio Biossays, France) according to manufacture instructions. cAMP dynamic 2 assay (Cisbio Biossays, France) is method based on homogenous time-resolved fluorescence. cAMP dynamic 2 is a competitive immunoassay between native cAMP produced by cells and the cyclic AMP labeled with, a fluorescence dye. The tracer binding is visualized by antibody anti - cAMP labeled with Eu^3+ cryptate. The specific signal is inversely proportional to the concentration of cAMP in the sample.
Incubation of cells with all compounds was performed in 96 well plates. Each well were supplement with HHB containing 130 mM NaCl, 5,4 mM KCl, 1,8 mM CaCl2, 0,8 mM MgSO4, 0,9 mM NaH2PO4, 25 mM glucose and 20 mM HEPES, pH 7.4 with or without glutamate and with or without tested compound and forskolin (10 uM final concentration) in total volume of 50 ul. Assay was started by adding 50 ul of HHB buffer with cells to each well. Assay was performed in 37° C. After 5 min of incubation 10 ul of suspension containing 2000 cells were transferred to white 384 well plates (784080, Greiner bio-one) containing of 5 ul of cAMP-d2 conjugate in lysis buffer (cAMP dynamic 2, Cisbio Bioassays, France) in each well. Than was added 5 ul of cryptate conjugate in lysis buffer (cAMP dynamic 2, Cisbio Bioassays, France). After 1 h incubation in room temperature the fluorescence intensity of the assay plate were measured at 314 nm excitation, and 620 nm and 665 nm emission in Infinite M1000 (Tecan) microplate reader. Data were expressed as the ratio of 665 nm/620 nm. All liquid handling operations were performed using EVO 2000 system (Tecan, Switzerland).
Potentiation of the glutamate response of mGluR4 receptor by the invented compounds was observed as a decrease of EC50 value for the glutamate in the presence of these molecules in the compare of EC50 value in the absence of compounds. A decrease in the EC50 for glutamate in the presence of tested compound was an indicator of degree of mGluR4 positive allosteric modulation at a given concentration of the sample compound. […]

Chain of mGluR8 (O00222 34-908, species assumed): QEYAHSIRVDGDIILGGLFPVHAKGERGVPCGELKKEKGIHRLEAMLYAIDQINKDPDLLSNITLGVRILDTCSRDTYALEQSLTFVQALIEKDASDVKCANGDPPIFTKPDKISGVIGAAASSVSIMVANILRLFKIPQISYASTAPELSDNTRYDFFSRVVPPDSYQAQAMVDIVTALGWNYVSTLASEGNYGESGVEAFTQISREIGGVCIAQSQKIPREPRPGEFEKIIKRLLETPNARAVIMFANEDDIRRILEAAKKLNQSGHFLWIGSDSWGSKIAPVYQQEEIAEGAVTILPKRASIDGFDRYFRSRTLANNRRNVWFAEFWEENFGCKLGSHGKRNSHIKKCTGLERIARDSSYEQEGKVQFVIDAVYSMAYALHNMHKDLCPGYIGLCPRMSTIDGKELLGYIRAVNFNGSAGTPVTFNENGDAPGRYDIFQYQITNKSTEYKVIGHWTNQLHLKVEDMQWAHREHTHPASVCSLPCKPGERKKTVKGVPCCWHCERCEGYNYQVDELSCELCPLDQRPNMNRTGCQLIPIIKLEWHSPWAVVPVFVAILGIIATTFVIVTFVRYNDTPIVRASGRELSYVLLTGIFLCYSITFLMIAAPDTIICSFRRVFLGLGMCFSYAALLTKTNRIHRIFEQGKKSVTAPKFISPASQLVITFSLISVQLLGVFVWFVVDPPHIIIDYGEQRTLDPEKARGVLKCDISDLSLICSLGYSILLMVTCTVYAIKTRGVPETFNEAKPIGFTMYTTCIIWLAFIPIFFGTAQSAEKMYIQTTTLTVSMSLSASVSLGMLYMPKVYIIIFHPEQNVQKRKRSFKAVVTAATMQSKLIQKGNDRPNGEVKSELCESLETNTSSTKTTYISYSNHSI
Chain of mGluR1 (Q13255 19-1194): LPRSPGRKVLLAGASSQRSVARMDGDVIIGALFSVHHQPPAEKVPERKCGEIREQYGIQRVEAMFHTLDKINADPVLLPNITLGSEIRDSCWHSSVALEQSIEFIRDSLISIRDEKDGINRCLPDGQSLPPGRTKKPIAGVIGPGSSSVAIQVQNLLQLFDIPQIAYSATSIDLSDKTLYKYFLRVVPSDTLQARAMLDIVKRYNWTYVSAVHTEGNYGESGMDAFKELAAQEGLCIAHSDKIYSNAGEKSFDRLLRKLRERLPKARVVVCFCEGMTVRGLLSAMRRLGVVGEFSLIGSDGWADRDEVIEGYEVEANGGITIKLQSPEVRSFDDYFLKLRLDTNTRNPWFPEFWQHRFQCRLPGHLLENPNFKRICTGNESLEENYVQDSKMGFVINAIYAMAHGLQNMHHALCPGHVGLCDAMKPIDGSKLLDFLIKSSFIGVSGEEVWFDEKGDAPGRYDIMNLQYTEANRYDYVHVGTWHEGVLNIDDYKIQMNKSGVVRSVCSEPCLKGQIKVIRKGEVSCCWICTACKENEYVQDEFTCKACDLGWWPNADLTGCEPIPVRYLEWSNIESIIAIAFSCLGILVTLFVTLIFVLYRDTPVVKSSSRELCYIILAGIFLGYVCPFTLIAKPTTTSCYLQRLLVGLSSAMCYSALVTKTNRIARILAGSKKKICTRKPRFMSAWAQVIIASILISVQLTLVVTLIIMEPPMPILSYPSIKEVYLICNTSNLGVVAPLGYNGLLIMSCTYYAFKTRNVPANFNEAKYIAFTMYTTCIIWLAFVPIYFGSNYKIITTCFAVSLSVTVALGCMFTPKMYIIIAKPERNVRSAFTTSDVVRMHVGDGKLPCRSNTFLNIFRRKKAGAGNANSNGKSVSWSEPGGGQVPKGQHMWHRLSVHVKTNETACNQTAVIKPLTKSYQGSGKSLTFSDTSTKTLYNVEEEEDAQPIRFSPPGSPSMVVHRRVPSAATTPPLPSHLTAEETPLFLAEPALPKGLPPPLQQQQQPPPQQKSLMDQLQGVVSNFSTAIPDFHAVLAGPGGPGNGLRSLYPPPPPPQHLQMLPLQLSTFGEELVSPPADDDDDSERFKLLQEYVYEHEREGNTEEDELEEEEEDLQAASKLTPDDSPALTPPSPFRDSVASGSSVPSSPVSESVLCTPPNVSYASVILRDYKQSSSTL

Row | Structure (SMILES) | Emax [3] [%] | further results
1 | O=C(Nc1ccccc1)C12CC1C(=NO)c1ccccc1O2 (single isomer, unassigned; (-)) [(-)PHCCC, N-phenyl-7-(hydroxyimino)cyclopropan[b]chromen-1a-carboxamide] |  | partial antagonist of mGluR1 [1]: 30%
2 | N[C@H](C(=O)O)c1ccc(C(=O)O)c(C(=O)O)c1 [(S)-3,4-DCPG] |  | selectivity for mGluR8 over mGluR4 [2]: 100 fold
3 | COc1ccc(-c2nc(-c3ccc(NC(=O)c4ccncc4)cc3)no2)cc1 [Example 6, N-{4-[5-(4-methoxyphenyl)-1,2,4-oxadiazol-3-yl]phenyl}pyridine-4-carboxamide] | 105 to 135 | 
4 | O=C(Nc1ccc(-c2noc(-c3ccc(F)cc3Cl)n2)c(F)c1)c1ccccn1 [Example 26, N-{4-[5-(2-chloro-4-fluorophenyl)-1,2,4-oxadiazol-3-yl]-3-fluorophenyl} pyridine-2-carboxamide] | 105 to 135 | 
5 | O=C(Nc1ccc(-c2noc(-c3ccccc3)n2)c(C(F)(F)F)c1)c1ccccn1 [Example 28] | 105 to 118 | EC50 [3]: < 300 nM
6 | Cc1cc(NC(=O)c2ccccn2)ccc1-c1noc(-c2ccccc2)n1 [Example 30, N-[3-methyl-4-(5-phenyl-1,2,4-oxadiazol-3-yl)phenyl]pyridine-2-carboxamide] | 105 to 118 | EC50 [3]: < 300 nM
7 | O=S(=O)(Nc1ccccc1Cl)c1ccc(-c2noc(-c3ccccc3)n2)cc1 [Example 44, N-(2-chlorophenyl)-4-(5-phenyl-1,2,4-oxadiazol-3-yl)benzene-1-sulfonamide] | 99.2 to 119 | 
8 | O=S(=O)(Nc1ccc(F)cc1F)c1ccc(-c2noc(-c3ccccn3)n2)cc1 [Example 46, N-(2,4-difluorophenyl)-4-[5-(pyridin-2-yl)-1,2,4-oxadiazol-3-yl]benzene-1-sulfonamide] | 99.2 to 119 | 
9 | O=C(Nc1ccc(-c2nc(-c3ccccc3)no2)cc1)c1ccccc1 [Example 47, N-[4-(3-phenyl-1,2,4-oxadiazol-5-yl)phenyl]benzamide] | 99.2 to 119 | 
10 | O=C(Nc1ccc(-c2nc(-c3ccccc3)no2)cc1)c1cccc(Cl)c1 [Example 48, 3-chloro-N-[4-(3-phenyl-1,2,4-oxadiazol-5-yl)phenyl]benzamide] | 99.2 to 119 | 
11 | COc1ccc(C(=O)Nc2ccc(-c3nc(-c4ccccc4)no3)cc2)cc1 [Example 49, 4-methoxy-N-[4-(3-phenyl-1,2,4-oxadiazol-5-yl)phenyl]benzamide] | 105 to 118 | EC50 [3]: < 300 nM
12 | O=C(Nc1ccc(-c2nc(-c3ccccc3)no2)cc1)c1ccc([N+](=O)[O-])cc1 [Example 50, 4-nitro-N-[4-(3-phenyl-1,2,4-oxadiazol-5-yl)phenyl]benzamide] | 105 to 135 | 
13 | Cn1cccc1C(=O)Nc1ccc(-c2nc(-c3ccccc3)no2)cc1 [Example 54, 1-methyl-N-[4-(3-phenyl-1,2,4-oxadiazol-5-yl)phenyl]-1H-pyrrole-2-carboxamide] | 99.2 to 119 | 

Second part, led by results:

Row | Emax [3] [%] | Structure (SMILES) | further results
14 | 99.2 to 119 | COc1cc(NC(=O)c2ccccn2)ccc1-c1noc(-c2ccccc2Cl)n1 [Example 17, N-{4-[5-(2-chlorophenyl)-1,2,4-oxadiazol-3-yl]-3-methoxyphenyl}pyridine-2-carboxamide] | 
15 | 99.2 to 119 | COc1cc(NC(=O)c2ccccn2)ccc1-c1noc(-c2ccc(F)cc2Cl)n1 [Example 19, N-{4-[5-(2-chloro-4-fluorophenyl)-1,2,4-oxadiazol-3-yl]-3-methoxyphenyl} pyridine-2-carboxamide] | 
16 | 99.2 to 119 | O=C(Nc1ccc(-c2noc(-c3ccc(F)cc3Cl)n2)c(Cl)c1)c1ccccn1 [Example 22, N-{3-chloro-4-[5-(2-chloro-4-fluorophenyl)-1,2,4-oxadiazol-3-yl]phenyl}pyridine-2-carboxamide] | 
17 | 105 to 118 | COc1ccccc1-c1nc(-c2ccc(NC(=O)c3ccccn3)cc2F)no1 [Example 27, N-{4-[5-(2-methoxyphenyl)-1,2,4-oxadiazol-3-yl]-3-fluorophenyl}pyridine-2-carboxamide] | EC50 [3]: < 300 nM
18 | 99.2 to 119 | O=C(Nc1ccc(-c2noc(-c3ccccc3Cl)n2)c(C(F)(F)F)c1)c1ccccn1 [Example 29, N-{4-[5-(2-chlorophenyl)-1,2,4-oxadiazol-3-yl]-3-(trifluoromethyl)phenyl} pyridine-2-carboxamide] | 
19 | 105 to 135 | Cc1cc(NC(=O)c2ccccn2)ccc1-c1noc(-c2ccccc2Cl)n1 [Example 31, N-{4-[5-(2-chlorophenyl)-1,2,4-oxadiazol-3-yl]-3-methylphenyl}pyridine-2-carboxamide] | 
20 | 99.2 to 119 | COc1cc(NC(=O)c2cccc(F)n2)ccc1-c1noc(-c2ccccc2Cl)n1 [Example 32, N-{4-[5-(2-chlorophenyl)-1,2,4-oxadiazol-3-yl]-3-methoxyphenyl}-6-fluoropyridine-2-carboxamide] | 
21 | 99.2 to 119 | COc1cc(NC(=O)c2ncc(Cl)cc2F)ccc1-c1noc(-c2ccccc2Cl)n1 [Example 33, 5-chloro-N-{4-[5-(2-chlorophenyl)-1,2,4-oxadiazol-3-yl]-3-methoxyphenyl}-3-fluoropyridine-2-carboxamide] | 
22 | 99.2 to 119 | COc1cc(NC(=O)c2cccc(Cl)n2)ccc1-c1noc(-c2ccccc2Cl)n1 [Example 34, 6-chloro-N-{4-[5-(2-chlorophenyl)-1,2,4-oxadiazol-3-yl]-3-methoxyphenyl}pyridine-2-carboxamide] | 
23 | 105 to 135 | COc1cc(NC(=O)c2ccncn2)ccc1-c1noc(-c2ccccc2Cl)n1 [Example 38, N-{4-[5-(2-chlorophenyl)-1,2,4-oxadiazol-3-yl]-3-methoxyphenyl} pyrimidine-4-carboxamide] | 
24 | 105 to 135 | COc1cc(NC(=O)c2cccc(F)n2)ccc1-c1noc(-c2ccccc2F)n1 [Example 40, 6-fluoro-N-{4-[5-(2-fluorophenyl)-1,2,4-oxadiazol-3-yl]-3-methoxyphenyl} pyridine-2-carboxamide] | 
25 | 99.2 to 119 | COc1cc(NC(=O)c2nc(Cl)ccc2Cl)ccc1-c1noc(-c2ccccc2F)n1 [Example 41, 3,6-dichloro-N-{4-[5-(2-fluorophenyl)-1,2,4-oxadiazol-3-yl]-3-methoxyphenyl}pyridine-2-carboxamide] | 
26 | 99.2 to 119 | O=C(Nc1ccc(-c2noc(-c3ccccc3Cl)n2)c(Cl)c1)c1cccc(F)n1 [Example 42] | 
